biological target: T1, hNav1.7 channels (Homo sapiens, UniProt Q15858); test: hNav1.7 channel in vitro patch-clamp assay; type: cell-based; conditions: stable HEK293 cell line expressing hNav1.7; whole cell patch-clamp (QPatch HTX and/or conventional), room temperature; voltage protocol not given
T1 construct: host or cells: HEK293
Method: hNav1.7 Channel In Vitro Patch-Clamp Assay
Cells: Sable HEK293 (human embryonic kidney) cell line expressing hNav1.7 channels was used in the assay. The cell line was obtained from Millipore (Millipore Corporation, MA).
Patch-clamp recordings: The recordings were performed on QPatch HTX (Sophion Bioscience, Denmark) and/or conventional patch-clamp (Axon Multiclamp 700B systems, Molecular Devices, CA) platforms at room temperature, using whole cell patch-clamp techniques. The composition of extracellular solution was (in mM): HEPES 5, NaCl 40, KCl 3, CaCl2 1, MgCl2 1, Choline Chloride 100. Adjust pH to 7.2 with 1N NaOH, osmolarity to 300-310 mOsm with sucrose. The composition of intracellular solution was (in mM): HEPES 10, NaCl 10, Na2ATP 1, MgCl2 2, KF 135, EGTA 10. Adjust pH to 7.2 with 1N NaOH, osmolarity to 290-300 mOsm with sucrose.
For conventional patch-clamp, 35 mm culture dishes containing hNav1.7 cells were placed on the stage of an inverted microscope and continuously perfused with extracellular solution from a perfusion system (Biologic Rapid solution changer, RSC-160, ˜1 ml/min). […] The recordings were controlled by pCLAMP10 software. Test compounds were dissolved in 100% DMSO to make stock solutions for each test concentration, and then diluted into extracellular solution to achieve final concentration for testing. Final DMSO concentration was less than 0.3%. Two voltage protocols were used in hNav1.7 assay: for non-inactivated protocol, the sodium currents were elicited by a 2 ms pulse to −10 mV from a holding potential of −110 mV. For inactivated protocol, the holding potential was set at V1/2. The voltage was firstly stepped to −110 mV for 50 ms, then to −10 mV for 2 ms and then stepped back to holding potential. In both protocols the voltage command was given in every 10 s. Compound effect (% inhibition) was determined by difference in current amplitude before and after the application of test compounds. IC50 values were determined from concentration-response curves that were obtained with Hill fitting.
For QPatch HTX assay, hNav1.7 cells grown to 50%-80% confluence were rinsed with DPBS and dissociated with Tryple (Invitrogen, 12605-010). The dissociated cells were then mixed with extracellular solution. After centrifuge, the cells were resuspended in extracellular solution and used in the QPatch experiment. The whole-cell protocols, voltage protocols and application protocols were established with QPatch Assay Software 3.4 (Sophion Bioscience, Denmark). Only the inactivated protocol was used in the QPatch assay.

T1 sequence (Q15858 whole entry): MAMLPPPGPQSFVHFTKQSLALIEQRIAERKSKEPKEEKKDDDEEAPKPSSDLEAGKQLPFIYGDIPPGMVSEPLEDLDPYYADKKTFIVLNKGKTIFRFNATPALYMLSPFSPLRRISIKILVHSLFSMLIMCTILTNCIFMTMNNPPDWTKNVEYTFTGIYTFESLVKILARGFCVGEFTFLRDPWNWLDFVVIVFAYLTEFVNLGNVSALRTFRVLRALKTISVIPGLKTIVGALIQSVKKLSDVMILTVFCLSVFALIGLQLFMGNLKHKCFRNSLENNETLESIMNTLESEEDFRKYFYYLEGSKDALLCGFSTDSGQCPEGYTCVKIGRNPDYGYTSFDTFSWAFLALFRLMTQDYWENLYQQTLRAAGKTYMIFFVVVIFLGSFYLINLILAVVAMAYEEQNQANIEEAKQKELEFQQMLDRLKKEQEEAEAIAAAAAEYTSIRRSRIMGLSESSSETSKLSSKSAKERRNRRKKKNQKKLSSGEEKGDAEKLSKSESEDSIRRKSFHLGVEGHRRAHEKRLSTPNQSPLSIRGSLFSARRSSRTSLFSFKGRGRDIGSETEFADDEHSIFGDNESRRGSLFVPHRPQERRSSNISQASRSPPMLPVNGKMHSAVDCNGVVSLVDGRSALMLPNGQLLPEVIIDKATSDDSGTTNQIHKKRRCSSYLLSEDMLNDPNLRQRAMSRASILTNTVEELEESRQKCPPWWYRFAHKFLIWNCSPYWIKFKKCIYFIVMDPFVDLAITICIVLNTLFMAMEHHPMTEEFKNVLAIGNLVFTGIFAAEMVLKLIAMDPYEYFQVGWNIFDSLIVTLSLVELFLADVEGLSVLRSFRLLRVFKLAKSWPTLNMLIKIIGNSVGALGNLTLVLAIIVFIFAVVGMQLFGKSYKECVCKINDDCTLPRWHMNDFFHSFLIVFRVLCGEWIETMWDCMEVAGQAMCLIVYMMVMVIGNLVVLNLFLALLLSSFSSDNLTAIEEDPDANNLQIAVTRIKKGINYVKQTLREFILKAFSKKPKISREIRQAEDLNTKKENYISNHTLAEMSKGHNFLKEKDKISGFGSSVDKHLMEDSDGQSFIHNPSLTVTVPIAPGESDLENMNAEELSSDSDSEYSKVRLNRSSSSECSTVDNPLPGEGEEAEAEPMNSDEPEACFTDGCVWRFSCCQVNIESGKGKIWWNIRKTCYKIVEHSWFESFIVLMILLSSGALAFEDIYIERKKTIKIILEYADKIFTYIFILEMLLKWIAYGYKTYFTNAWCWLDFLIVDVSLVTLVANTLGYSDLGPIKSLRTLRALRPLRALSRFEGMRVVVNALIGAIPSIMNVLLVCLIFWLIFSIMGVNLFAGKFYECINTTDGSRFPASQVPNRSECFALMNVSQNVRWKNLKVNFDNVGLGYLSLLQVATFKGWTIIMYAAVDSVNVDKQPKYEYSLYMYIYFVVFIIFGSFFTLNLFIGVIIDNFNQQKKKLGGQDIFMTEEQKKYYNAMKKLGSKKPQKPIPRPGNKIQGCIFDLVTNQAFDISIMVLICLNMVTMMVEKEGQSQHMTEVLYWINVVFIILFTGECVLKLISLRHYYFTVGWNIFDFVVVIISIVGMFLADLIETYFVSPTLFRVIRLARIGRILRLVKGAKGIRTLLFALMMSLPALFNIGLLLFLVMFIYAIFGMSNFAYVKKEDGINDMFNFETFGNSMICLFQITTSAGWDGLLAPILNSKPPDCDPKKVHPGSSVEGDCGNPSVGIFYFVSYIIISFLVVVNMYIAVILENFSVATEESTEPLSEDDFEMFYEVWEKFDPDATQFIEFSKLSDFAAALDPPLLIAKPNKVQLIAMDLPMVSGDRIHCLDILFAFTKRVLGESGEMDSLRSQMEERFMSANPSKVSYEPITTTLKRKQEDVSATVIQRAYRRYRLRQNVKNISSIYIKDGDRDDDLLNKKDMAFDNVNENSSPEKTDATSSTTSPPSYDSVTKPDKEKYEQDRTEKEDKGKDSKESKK

Row | SMILES | IC50
1 | O=C1N(c2cnc(OC3CC(F)(F)C3)c(Cl)c2)c2cc3onc(NS(=O)(=O)C4CC4)c3cc2C12CC2 [Example 19, N-(7′-(5-chloro-6-(3,3-difluorocyclobutoxyl)pyridin-3-yl)-6′-oxo-6′,7′-dihydrospiro[cyclopropane-1,5′-isoxazolo[4,5-f]indol]-3′-yl)cyclopropanesulfonamide] | 200 nM
2 | O=C1N(c2cnc(OC3CCCCC3)c(Cl)c2)c2cc3onc(NS(=O)(=O)C4CC4)c3cc2C12CC2 [Example 26, N-(7′-(5-chloro-6-(cyclohexyloxy)pyridin-3-yl)-6′-oxo-6′,7′-dihydrospiro[cyclopropane-1,5′-isoxazolo[4,5-f]indol]-3′-yl)cyclopropanesulfonamide] | 110 nM
3 | O=S(=O)(Nc1noc2cc3c(-c4ccc(Cl)c(Cl)c4)nccc3cc12)C1CC1 [Example 52] | 800 nM
4 | CCC(C)Oc1ncc(N2C(=O)C3(CC3)c3cc4c(NS(=O)(=O)C5CC5)noc4cc32)cc1Cl (stereo not shown) [Example 24, N-(7′-(6-(sec-butoxy)-5-chloropyridin-3-yl)-6′-oxo-6′,7′-dihydrospiro[cyclopropane-1,5′-isoxazolo[4,5-f]indol]-3′-yl)cyclopropanesulfonamide] | 70 nM
5 | CC1(COc2ncc(N3C(=O)C4(CC4)c4cc5c(NS(=O)(=O)C6CC6)noc5cc43)cc2Cl)CC1 [Example 16, N-(7′-(5-chloro-6-((1-methylcyclopropyl)methoxy)pyridin-3-yl)-6′-oxo-6′,7′-dihydrospiro[cyclopropane-1,5′-isoxazolo[4,5-f]indol]-3′-yl)cyclopropanesulfonamide] | 60 nM
6 | COc1ncc(N2C(=O)C3(CC3)c3cc4c(NS(=O)(=O)C5CC5)noc4cc32)cc1Cl [Example 29, N-(7′-(5-chloro-6-methoxypyridin-3-yl)-6′-oxo-6′,7′-dihydrospiro[cyclopropane-1,5′-isoxazolo[4,5-f]indol]-3′-yl)cyclopropanesulfonamide] | 800 nM
7 | CC1CCC(COc2ncc(N3C(=O)C4(CC4)c4cc5c(NS(=O)(=O)C6CC6)noc5cc43)cc2Cl)CC1 (stereo not shown) [Example 23, N-(7′-(5-chloro-6-((4-methylcyclohexyl)methoxy)pyridin-3-yl)-6′-oxo-6′,7′-dihydrospiro[cyclopropane-1,5′-isoxazolo[4,5-f]indol]-3′-yl)cyclopropanesulfonamide] | 200 nM
8 | CS(=O)(=O)Nc1noc2cc3c(cc12)C1(CC1)C(=O)N3c1cnc(OCC2CCC(F)(F)CC2)c(Cl)c1 [Example 13, N-(7′-(5-chloro-6-((4,4-difluorocyclohexyl)methoxy)pyridin-3-yl)-6′-oxo-6′,7′-dihydrospiro[cyclopropane-1,5′-isoxazolo[4,5-f]indol]-3′-yl)methanesulfonamide] | 300 nM
9 | CC(C)COc1ncc(N2C(=O)C3(CCCC3)c3cc4c(NS(=O)(=O)C5CC5)noc4cc32)cc1Cl [Example 38, N-(7′-(5-chloro-6-isobutoxypyridin-3-yl)-6′-oxo-6′,7′-dihydrospiro[cyclopentane-1,5′-isoxazolo[4,5-f]indol]-3′-yl)cyclopropanesulfonamide] | 500 nM
10 | CC(C)COc1ncc(N2C(=O)C3(CC3)c3cc4c(NS(=O)(=O)N(C)C)noc4cc32)cc1Cl [Example 9, N-(7′-(5-chloro-6-isobutoxypyridin-3-yl)-6′-oxo-6′,7′-dihydrospiro[cyclopropane-1,5′-isoxazolo[4,5-f]indol]-3′-yl)dimethylamino-1-sulfonamide] | 1230 nM
11 | CC(C)COc1ncc(N2C(=O)C3(CC3)c3cc4c(NS(=O)(=O)C(F)(F)F)noc4cc32)cc1Cl [Example 5, N-(7′-(5-chloro-6-isobutoxypyridin-3-yl)-6′-oxo-6′,7′-dihydrospiro[cyclopropane-1,5′-isoxazolo[4,5-f]indol]-3′-yl)-1,1,1-trifluoromethanesulfonamide] | 430 nM
12 | CC1(COc2ncc(N3C(=O)C4(CC4)c4cc5c(NS(C)(=O)=O)noc5cc43)cc2Cl)CC1 [Example 15, N-(7′-(5-chloro-6-((1-methylcyclopropyl)methoxy)pyridin-3-yl)-6′-oxo-6′,7′-dihydrospiro[cyclopropane-1,5′-isoxazolo[4,5-f]indol]-3′-yl) methanesulfonamide] | 70 nM
13 | CC(C)COc1ncc(N2C(=O)C3(CC3)c3cc4c(NS(=O)(=O)c5ccccc5)noc4cc32)cc1Cl [Example 6, N-(7′-(5-chloro-6-isobutoxypyridin-3-yl)-6′-oxo-6′,7′-dihydrospiro[cyclopropane-1,5′-isoxazolo[4,5-f]indol]-3′-yl)benzenesulfonamide] | 3000 nM
14 | CC(C)COc1c(F)cc(N2C(=O)C3(CC3)c3cc4c(NS(=O)(=O)C5CC5)noc4cc32)cc1Cl [Example 33, N-(7′-(3-chloro-5-fluoro-4-isobutoxyphenyl)-6′-oxo-6′,7′-dihydrospiro[cyclopropane-1,5′-isoxazolo[4,5-f]indol]-3′-yl)cyclopropanesulfonamide] | 100 nM
15 | CS(=O)(=O)Nc1noc2cc3c(cc12)C1(CC1)C(=O)N3c1cnc(OCC2CCC(C(F)(F)F)CC2)c(Cl)c1 (stereo not shown) [Example 14, N-(7′-(5-chloro-6-((4-(trifluoromethyl)cyclohexyl)methoxy)pyridin-3-yl)-6′-oxo-6′,7′-dihydrospiro[cyclopropane-1,5′-isoxazolo[4,5-f]indol]-3′-yl)methanesulfonamide] | 200 nM
16 | O=C1N(c2cnc(OC(F)F)c(Cl)c2)c2cc3onc(NS(=O)(=O)C4CC4)c3cc2C12CC2 [Example 30, N-(7′-(5-chloro-6-(difluoromethoxy)pyridin-3-yl)-6′-oxo-6′,7′-dihydrospiro[cyclopropane-1,5′-isoxazolo[4,5-f]indol]-3′-yl)cyclopropanesulfonamide] | 630 nM
17 | CC(C)COc1ncc(-c2nccc3cc4c(NS(C)(=O)=O)noc4cc23)cc1Cl [Example 51, N-(8-(5-chloro-6-isobutoxypyridin-3-yl)isoxazolo[4,5-g]isoquinolin-3-yl)methanesulfonamide] | 300 nM
18 | CC(C)COc1ncc(N2C(=O)C3(CC3)c3cc4c(NS(=O)(=O)C5CC5)noc4cc32)cc1Cl [Example 2, N-(7′-(5-chloro-6-isobutoxypyridin-3-yl)-6′-oxo-6′,7′-dihydrospiro[cyclopropane-1,5′-isoxazolo[4,5-f]indol]-3′-yl)cyclopropanesulfonamide] | 80 nM
19 | CC(C)COc1ncc(N2C(=O)C3(CCC3)c3cc4c(NS(=O)(=O)C5CC5)noc4cc32)cc1Cl [Example 37, N-(7′-(5-chloro-6-isobutoxypyridin-3-yl)-6′-oxo-6′,7′-dihydrospiro[cyclobutane-1,5′-isoxazolo[4,5-f]indol]-3′-yl)cyclopropanesulfonamide] | 40 nM
20 | CC(C)COc1ncc(-n2cc(C(F)(F)F)c3cc4c(NS(=O)(=O)C5CC5)noc4cc32)cc1Cl [Example 41, N-(7-(5-chloro-6-isobutoxypyridin-3-yl)-5-(trifluoromethyl)-7H-isoxazolo[4,5-f]indol-3-yl)cyclopropanesulfonamide] | 50 nM
21 | O=C1N(c2cnc(OCCCC(F)(F)F)c(Cl)c2)c2cc3onc(NS(=O)(=O)C4CC4)c3cc2C12CC2 [Example 17, N-(7′-(5-chloro-6-(4,4,4-trifluorobutoxyl)pyridin-3-yl)-6′-oxo-6′,7′-dihydrospiro[cyclopropane-1,5′-isoxazolo[4,5-f]indol]-3′-yl)cyclopropanesulfonamide] | 200 nM
22 | Cc1cc2cc3c(NS(=O)(=O)C4CC4)noc3cc2c(-c2cnc(OCC(C)C)c(Cl)c2)n1 [Example 61, N-(8-(5-chloro-6-isobutoxypyridin-3-yl)-6-methylisoxazolo[4,5-g]isoquinolin-3-yl)cyclopropanesulfonamide] | 510 nM
23 | CC(C)COc1ncc(-c2cncc3cc4c(NS(C)(=O)=O)noc4cc23)cc1Cl [Example 57, N-(8-(5-chloro-6-isobutoxypyridin-3-yl)isoxazolo[5,4-g]isoquinolin-3-yl)methanesulfonamide] | 2360 nM
24 | CC(C)COc1ncc(-c2cccc3cc4c(NS(=O)(=O)C5CC5)noc4cc23)cc1Cl [Example 58, N-(8-(5-chloro-6-isobutoxypyridin-3-yl)naphtho[2,3-d]isoxazol-3-yl)cyclopropanesulfonamide] | 10 nM
25 | CC(C)COc1ncc(-c2ccnc3cc4c(NS(=O)(=O)C5CC5)noc4cc23)cc1Cl [Example 55, N-(8-(5-chloro-6-isobutoxypyridin-3-yl)isoxazolo[5,4-g]quinolin-3-yl)cyclopropanesulfonamide] | 850 nM
